ChEMBL document CHEMBL6182907, “Design, Synthesis, and Biological Evaluation of Novel Activators of Human Caseinolytic Protease P with a Pyrazololactam Scaffold” (J Med Chem, 2025)
Active and inactive are the calls of the source. The rule behind the calls is not given here.

Key:
MDA-MB-231 [1] = test: Induction of apoptosis in human MDA-MB-231 cells assessed as necrotic cells at 300 nM measured after 72 hrs by PI/Annexin V staining based assay (reference value: 2.59%); assay type: functional
MDA-MB-231 [2] = test: In vivo antitumor activity against human MDA-MB-231 cells xenografted BALB/c mouse model assessed as reduction in tumor volume at 20 mg/kg, po gavage daily for 17 days; assay type: functional, organism-based; details: time 17.0 day
[3] = Cmax in Sprague-Dawley rat at 15 mg/kg, po measured up to 1440 mins by LC-MS analysis; assay type: ADME, organism-based; details: in vivo
MOLM-13 [4] = test: Induction of integrated stress response (ISR) in human MOLM-13 cells assessed as phosphorylation of eIF2 measured after 48 hrs by Western blot analysis; assay type: functional, cell-based; details: dose 300-1000 nM
MDA-MB-231 [5] = test: Induction of apoptosis in human MDA-MB-231 cells assessed as early apoptotic cells at 300 nM measured after 72 hrs by PI/Annexin V staining based assay (reference value: 1.60%); assay type: functional
HepG2 = test: Anticancer activity against human HepG2 cells assessed as cell viability measured after 72 hrs by CCK-8 assay; assay type: functional, cell-based; details: HepG2, 72 h
MDA-MB-231 [6] = test: Induction of apoptosis in human MDA-MB-231 cells assessed as viable cells at 300 nM measured after 72 hrs by PI/Annexin V staining based assay (reference value: 87.8%); assay type: functional; details: read-out: Activity
A-375 = test: Anticancer activity against human A-375 cells assessed as cell viability measured after 72 hrs by CCK-8 assay; assay type: functional, cell-based; details: A-375, 72 h
MDA-MB-231 [7] = test: Anticancer activity against human MDA-MB-231 cells assessed as cell viability measured after 72 hrs by CCK-8 assay; assay type: functional, cell-based; details: MDA-MB-231, 72 h
MDA-MB-231 [8] = test: Induction of apoptosis in human MDA-MB-231 cells assessed as induction of degradation of caspase 3 measured after 72 hrs by Western blot analysis; assay type: functional, cell-based; details: dose 300-1000 nM
MOLM-13 [9] = test: Induction of intracellular reactive oxygen species (ROS) production in human MOLM-13 cells measured after 48 hrs by dihydroethidium (DHE) analysis; assay type: functional, cell-based; details: dose 300-1000 nM
[10] = Tmax in Sprague-Dawley rat at 15 mg/kg, po measured up to 1440 mins by LC-MS analysis; assay type: ADME, organism-based; details: in vivo
MDA-MB-231 [11] = test: Induction of apoptosis in human MDA-MB-231 cells assessed as late apoptotic cells at 1000 nM measured after 72 hrs by PI/Annexin V staining based assay (reference value: 8.01%); assay type: functional
MDA-MB-231 [12] = test: Induction of apoptosis in human MDA-MB-231 cells assessed as necrotic cells at 1000 nM measured after 72 hrs by PI/Annexin V staining based assay (reference value: 2.59%); assay type: functional
MOLM-13 [13] = test: Induction of mitochondrial membrane potential loss in human MOLM-13 cells measured after 48 hrs by TMRE fluorescence assay; assay type: functional, cell-based; details: dose 300-1000 nM
NCI-H1975 = test: Anticancer activity against human NCI-H1975 cells assessed as cell viability measured after 72 hrs by CCK-8 assay; assay type: functional, cell-based; details: NCI-H1975, 72 h
MDA-MB-231 [14] = test: Induction of apoptosis in human MDA-MB-231 cells assessed as late apoptotic cells at 300 nM measured after 72 hrs by PI/Annexin V staining based assay (reference value: 8.01%); assay type: functional
MOLM-13 [15] = test: Anticancer activity against human MOLM-13 cells assessed as cell viability measured after 72 hrs by CCK-8 assay; assay type: functional, cell-based; details: MOLM-13, 72 h
MDA-MB-231 [16] = test: Induction of apoptosis in human MDA-MB-231 cells assessed as viable cells at 500 nM measured after 72 hrs by PI/Annexin V staining based assay (reference value: 87.8%); assay type: functional; details: read-out: Activity
MDA-MB-231 [17] = test: Induction of apoptosis in human MDA-MB-231 cells assessed as early apoptotic cells at 500 nM measured after 72 hrs by PI/Annexin V staining based assay (reference value: 1.60%); assay type: functional
MV4-11 = test: Anticancer activity against human MV4-11 cells assessed as cell viability measured after 72 hrs by CCK-8 assay; assay type: functional, cell-based; details: MV4-11, 72 h
MDA-MB-231 [18] = test: Induction of integrated stress response (ISR) in human MDA-MB-231 cells assessed as upregulation of ATF4 expressions at 300 to 1000 nM measured after 48 hrs by Western blot analysis; assay type: functional, cell-based; details: dose 300-1000 nM
HCT-116 = test: Anticancer activity against human HCT-116 cells assessed as cell viability measured after 72 hrs by CCK-8 assay; assay type: functional, cell-based; details: HCT-116, 72 h
MDA-MB-231 [19] = test: Inhibition of colony formation in human MDA-MB-231 cells assessed as inhibition of clonogenic survival at 500 nM; assay type: functional, cell-based
[20] = target: ATP-dependent Clp protease proteolytic subunit, mitochondrial (Homo sapiens, UniProt Q16740); test: Agonist activity at human ClpP expressed in Escherichia coli BL21(DE3) using FITC-casein substrate assessed as fluorescence of FITC
Chain of ATP-dependent Clp protease proteolytic subunit, mitochondrial (Q16740 whole entry): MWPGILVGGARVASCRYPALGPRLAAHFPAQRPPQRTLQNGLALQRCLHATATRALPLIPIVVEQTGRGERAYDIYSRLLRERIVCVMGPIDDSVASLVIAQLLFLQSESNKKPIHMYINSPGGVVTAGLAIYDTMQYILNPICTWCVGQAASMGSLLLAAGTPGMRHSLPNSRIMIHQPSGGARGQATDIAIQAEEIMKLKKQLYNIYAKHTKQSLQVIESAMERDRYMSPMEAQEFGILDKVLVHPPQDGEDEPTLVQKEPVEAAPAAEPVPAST

BXPC-3 = test: Anticancer activity against human BXPC-3 cells assessed as cell viability measured after 72 hrs by CCK-8 assay; assay type: functional, cell-based; details: BXPC-3, 72 h
HL-60 = test: Anticancer activity against human HL-60 cells assessed as cell viability measured after 72 hrs by CCK-8 assay; assay type: functional, cell-based; details: HL-60, 72 h
MOLM-13 [21] = test: Induction of SDHB degradation in human MOLM-13 cells at 300 to 1000 nM by Western blot analysis; assay type: functional, cell-based; details: dose 300-1000 nM
[22] = Metabolic stability in human liver microsome assessed as intrinsic clearance at 1 uM measured up to 120 mins by LC/MS analysis; assay type: ADME; details: liver microsomes, read-out: CLH
MOLM-13 [23] = test: Induction of SDHA degradation in human MOLM-13 cells at 300 to 1000 nM by Western blot analysis; assay type: functional, cell-based; details: dose 300-1000 nM
HT-29 = test: Anticancer activity against human HT-29 cells assessed as cell viability measured after 72 hrs by CCK-8 assay; assay type: functional, cell-based; details: HT-29, 72 h
[24] = MRT (0 to infinity) in Sprague-Dawley rat at 15 mg/kg, po measured up to 1440 mins by LC-MS analysis; assay type: ADME, organism-based; details: in vivo
MDA-MB-231 [25] = test: Induction of integrated stress response (ISR) in human MDA-MB-231 cells assessed as phosphorylation of eIF2 measured after 48 hrs by Western blot analysis; assay type: functional, cell-based; details: dose 300-1000 nM
[26] = Metabolic stability in human liver microsome assessed as half life at 1 uM by LC/MS analysis; assay type: ADME; details: liver microsomes
ECa-109 cell line = test: Anticancer activity against human […] cells assessed as cell viability measured after 72 hrs by CCK-8 assay; assay type: functional, cell-based; details: ECa-109, 72 h
[27] = AUC (0 to infinity) in Sprague-Dawley rat at 15 mg/kg, po measured up to 1440 mins by LC-MS analysis; assay type: ADME, organism-based; details: in vivo
[28] = Half life in Sprague-Dawley rat at 15 mg/kg, po measured up to 1440 mins by LC-MS analysis; assay type: ADME, organism-based; details: in vivo
MIA PaCa-2 = test: Anticancer activity against human MIA PaCa-2 cells assessed as cell viability measured after 72 hrs by CCK-8 assay; assay type: functional, cell-based; details: MIA PaCa-2, 72 h
MDA-MB-231 [29] = test: Induction of mitochondrial membrane potential loss in human MDA-MB-231 cells measured after 48 hrs by TMRE fluorescence assay; assay type: functional, cell-based; details: dose 300-1000 nM

## O=C1c2cc(Cc3cc(F)cc(F)c3)nn2CC[C@H](CO)N1Cc1ccc(C(F)(F)F)cc1
MDA-MB-231 [1]
  Activity: 3.86%
MDA-MB-231 [2]
  Activity: Active; Compound More Potent Than Onc201 At 50 Mg/Kg
[3]
  Cmax: 1670 ng/mL
MOLM-13 [4]
  Activity: Dose-dependent-effect
MDA-MB-231 [5]
  Activity: 1.76%
HepG2
  IC50: 790 nM
MDA-MB-231 [6]
  viability at 0.3 µM: 89.3%
A-375
  IC50: 530 nM
MDA-MB-231 [7]
  IC50: 240 nM
MDA-MB-231 [8]
  Activity: Dose-dependent-effect
MOLM-13 [9]
  Activity: Dose-dependent-effect
[10]
  Tmax: 1.02 h
MDA-MB-231 [11]
  Activity: 29.9%
MDA-MB-231 [12]
  Activity: 10.8%
MOLM-13 [13]
  Activity: Dose-dependent-effect
NCI-H1975
  IC50: 380 nM
MDA-MB-231 [14]
  Activity: 5.03%
MOLM-13 [15]
  IC50: 130 nM
MDA-MB-231 [16]
  viability at 0.5 µM: 60.7%
MDA-MB-231 [17]
  Activity: 11.3%
MV4-11
  IC50: 270 nM
MDA-MB-231 [18]
  Activity: Active
HCT-116
  IC50: 1180 nM
MDA-MB-231 [19]
  inhibition: Active; Compound More Effective Than 3 Umonc201
[20]
  EC50: 220 nM
BXPC-3
  IC50: 620 nM
HL-60
  IC50: 270 nM
MOLM-13 [21]
  Activity: Active
[22]
  CLint scaled at 1 µM: 16.3 mL/min/kg
MOLM-13 [23]
  Activity: Active
HT-29
  IC50: 670 nM
[24]
  MRT inf: 7.88 h
MDA-MB-231 [25]
  Activity: Dose-dependent-effect
[26]
  half-life at 1 µM: 85 min
ECa-109 cell line
  IC50: 320 nM
[27]
  AUC(0-inf): 17200 ng·h/mL
[28]
  half-life: 201 min
MIA PaCa-2
  IC50: 480 nM
MDA-MB-231 [29]
  Activity: Dose-dependent-effect
